13 molecules from ChEMBL document CHEMBL5465560, “Selectivity Literature for EUbOPEN Chemogenomic Library” (2024) can be followed below.

Molecules are shown by their SMILES.

In one assay the target is D(1A) dopamine receptor (Homo sapiens, UniProt P21728). The experiment in a line: Selectivity interaction (Panel of kinases, GPCRs, ion channels and transporters (enzymatic assay)) EUB0000266bCl DRD1.
The target of assay [1] is Serine/threonine-protein kinase WNK2 (Homo sapiens) (UniProt Q9Y3S1). Nature of the assay: Selectivity interaction (ProQinase) EUB0000171b WNK2.
Chain of Serine/threonine-protein kinase WNK2 (Homo sapiens) (Q9Y3S1 whole entry): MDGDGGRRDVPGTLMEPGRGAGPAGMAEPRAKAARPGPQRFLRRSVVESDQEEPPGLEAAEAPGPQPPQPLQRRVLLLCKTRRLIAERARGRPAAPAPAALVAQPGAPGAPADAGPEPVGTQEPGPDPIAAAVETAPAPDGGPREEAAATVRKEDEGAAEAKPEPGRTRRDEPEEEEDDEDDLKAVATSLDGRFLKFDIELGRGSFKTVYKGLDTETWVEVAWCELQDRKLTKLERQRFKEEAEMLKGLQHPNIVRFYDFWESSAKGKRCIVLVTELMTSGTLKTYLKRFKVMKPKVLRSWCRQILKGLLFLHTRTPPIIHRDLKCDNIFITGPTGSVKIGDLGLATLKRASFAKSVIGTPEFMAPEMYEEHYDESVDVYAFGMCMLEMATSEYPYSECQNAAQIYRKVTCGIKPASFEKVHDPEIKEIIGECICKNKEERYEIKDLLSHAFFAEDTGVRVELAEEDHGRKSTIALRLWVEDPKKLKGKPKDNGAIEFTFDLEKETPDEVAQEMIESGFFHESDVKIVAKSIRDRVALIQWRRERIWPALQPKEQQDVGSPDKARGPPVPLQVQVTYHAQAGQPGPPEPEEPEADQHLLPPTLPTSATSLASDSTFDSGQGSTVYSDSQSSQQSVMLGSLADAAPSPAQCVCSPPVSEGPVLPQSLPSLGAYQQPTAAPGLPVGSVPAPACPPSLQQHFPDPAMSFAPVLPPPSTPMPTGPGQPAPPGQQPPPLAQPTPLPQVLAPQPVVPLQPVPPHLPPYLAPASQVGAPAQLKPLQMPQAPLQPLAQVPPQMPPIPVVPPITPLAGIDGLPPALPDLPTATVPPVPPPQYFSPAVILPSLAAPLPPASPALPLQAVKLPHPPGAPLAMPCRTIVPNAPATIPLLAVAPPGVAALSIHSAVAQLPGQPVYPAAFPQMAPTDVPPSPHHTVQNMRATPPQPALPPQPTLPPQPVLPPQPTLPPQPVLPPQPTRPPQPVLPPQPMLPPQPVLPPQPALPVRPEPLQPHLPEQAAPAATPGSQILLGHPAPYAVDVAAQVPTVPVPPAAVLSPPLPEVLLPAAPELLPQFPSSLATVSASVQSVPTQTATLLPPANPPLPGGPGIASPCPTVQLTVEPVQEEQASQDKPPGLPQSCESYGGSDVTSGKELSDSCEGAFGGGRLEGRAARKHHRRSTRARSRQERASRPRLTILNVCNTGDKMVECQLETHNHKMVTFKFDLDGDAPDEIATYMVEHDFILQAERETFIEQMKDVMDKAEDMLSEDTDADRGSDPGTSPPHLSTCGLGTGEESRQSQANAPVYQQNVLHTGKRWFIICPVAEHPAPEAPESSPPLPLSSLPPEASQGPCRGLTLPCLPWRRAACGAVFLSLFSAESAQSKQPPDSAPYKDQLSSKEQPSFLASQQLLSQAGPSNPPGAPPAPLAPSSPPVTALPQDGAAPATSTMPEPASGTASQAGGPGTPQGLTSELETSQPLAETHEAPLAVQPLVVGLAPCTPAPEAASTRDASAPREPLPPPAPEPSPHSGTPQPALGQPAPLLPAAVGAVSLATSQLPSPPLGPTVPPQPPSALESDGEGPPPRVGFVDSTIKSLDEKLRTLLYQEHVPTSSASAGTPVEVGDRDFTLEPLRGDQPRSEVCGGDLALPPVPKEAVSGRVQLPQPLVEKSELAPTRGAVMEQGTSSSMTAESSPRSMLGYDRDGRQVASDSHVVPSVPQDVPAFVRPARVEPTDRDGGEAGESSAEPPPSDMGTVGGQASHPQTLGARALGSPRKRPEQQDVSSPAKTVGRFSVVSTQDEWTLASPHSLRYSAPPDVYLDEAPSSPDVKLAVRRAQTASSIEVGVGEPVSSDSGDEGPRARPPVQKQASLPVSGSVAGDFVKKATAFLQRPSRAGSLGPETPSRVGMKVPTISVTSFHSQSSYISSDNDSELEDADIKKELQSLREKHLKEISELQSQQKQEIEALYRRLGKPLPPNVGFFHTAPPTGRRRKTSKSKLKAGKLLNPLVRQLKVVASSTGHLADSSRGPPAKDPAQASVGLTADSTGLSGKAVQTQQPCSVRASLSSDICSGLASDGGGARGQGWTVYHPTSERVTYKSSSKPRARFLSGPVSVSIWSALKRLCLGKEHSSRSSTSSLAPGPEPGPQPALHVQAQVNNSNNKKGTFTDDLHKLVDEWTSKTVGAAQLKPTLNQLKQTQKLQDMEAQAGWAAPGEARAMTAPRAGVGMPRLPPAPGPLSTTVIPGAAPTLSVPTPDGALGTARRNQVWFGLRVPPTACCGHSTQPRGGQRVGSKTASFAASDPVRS
The target in assay [2] is T1, Aurora kinase A (Homo sapiens) (UniProt O14965).
T1 sequence (whole entry): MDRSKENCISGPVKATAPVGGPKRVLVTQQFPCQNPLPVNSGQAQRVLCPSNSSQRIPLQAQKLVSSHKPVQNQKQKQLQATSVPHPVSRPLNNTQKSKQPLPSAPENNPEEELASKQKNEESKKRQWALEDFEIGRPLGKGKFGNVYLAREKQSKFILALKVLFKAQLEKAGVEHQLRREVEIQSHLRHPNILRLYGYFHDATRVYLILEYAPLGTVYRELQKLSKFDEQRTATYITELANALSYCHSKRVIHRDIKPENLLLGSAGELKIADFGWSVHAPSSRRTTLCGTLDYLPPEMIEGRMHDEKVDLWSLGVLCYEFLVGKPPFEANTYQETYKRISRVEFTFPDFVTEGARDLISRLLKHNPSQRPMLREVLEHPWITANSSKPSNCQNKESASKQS
Particulars: at 10 µM.

Assay [3] concerns the target Receptor tyrosine-protein kinase erbB-4 (Homo sapiens, UniProt Q15303). Nature of the assay: Selectivity interaction (Ambit KINOMEscan and KiNATiv profiling in Jurkat cells) EUB0000090b ERBB4. Particulars: at 1 µM. The class given is cell-based.
The test system of assay [4] is Phosphatidylinositol 4,5-bisphosphate 3-kinase catalytic subunit alpha isoform (Homo sapiens), P42336 [Q546K]. The experiment in a line: Selectivity interaction (KinomeScan (DiscoverX)) EUB0001079a PIK3CA. Particulars: at 1 µM.
Chain of Phosphatidylinositol 4,5-bisphosphate 3-kinase catalytic subunit alpha isoform (Homo sapiens), P42336 [Q546K] (P42336 whole entry Q546K, canonical isoform): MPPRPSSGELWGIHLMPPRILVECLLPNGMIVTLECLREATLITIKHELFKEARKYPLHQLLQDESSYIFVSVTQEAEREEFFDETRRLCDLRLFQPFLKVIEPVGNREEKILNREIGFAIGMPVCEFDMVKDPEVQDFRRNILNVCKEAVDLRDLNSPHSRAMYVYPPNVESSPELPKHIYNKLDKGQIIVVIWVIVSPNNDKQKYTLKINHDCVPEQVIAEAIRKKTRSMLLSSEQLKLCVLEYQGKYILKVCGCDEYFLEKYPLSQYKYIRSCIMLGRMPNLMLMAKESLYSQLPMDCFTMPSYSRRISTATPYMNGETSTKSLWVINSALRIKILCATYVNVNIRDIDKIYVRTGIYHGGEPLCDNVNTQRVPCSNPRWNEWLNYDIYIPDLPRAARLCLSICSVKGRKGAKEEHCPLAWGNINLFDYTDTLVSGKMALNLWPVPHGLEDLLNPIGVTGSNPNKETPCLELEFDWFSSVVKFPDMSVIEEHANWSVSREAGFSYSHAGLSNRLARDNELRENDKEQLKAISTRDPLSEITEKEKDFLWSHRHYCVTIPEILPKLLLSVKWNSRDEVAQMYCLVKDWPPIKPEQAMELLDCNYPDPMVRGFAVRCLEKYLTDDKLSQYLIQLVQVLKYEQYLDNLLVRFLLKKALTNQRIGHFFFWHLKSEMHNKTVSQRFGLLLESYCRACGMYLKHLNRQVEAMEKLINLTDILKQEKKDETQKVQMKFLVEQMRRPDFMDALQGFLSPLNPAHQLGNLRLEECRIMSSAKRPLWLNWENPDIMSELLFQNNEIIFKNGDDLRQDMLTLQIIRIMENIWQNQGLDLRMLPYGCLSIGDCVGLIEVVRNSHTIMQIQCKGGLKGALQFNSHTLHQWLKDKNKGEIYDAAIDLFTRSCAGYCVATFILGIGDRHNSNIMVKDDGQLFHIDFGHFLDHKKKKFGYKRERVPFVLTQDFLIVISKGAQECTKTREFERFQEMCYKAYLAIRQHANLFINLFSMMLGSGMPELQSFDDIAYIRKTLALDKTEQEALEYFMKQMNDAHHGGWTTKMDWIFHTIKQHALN
Assay [5] has as its target Transient receptor potential cation channel subfamily M member 6 (Homo sapiens) (UniProt Q9BX84). Nature of the assay: Selectivity interaction (KinomeScan (DiscoverX)) EUB0001079a TRPM6. Particulars: at 1 µM.
Assay [6] concerns the target Vascular endothelial growth factor receptor 1 (Homo sapiens) (UniProt P17948). The experiment in a line: Selectivity interaction (Kinase panel (Eurofins)) EUB0001564a FLT1. Particulars: at 1 µM.
Assay [7] concerns the target Dual specificity protein kinase CLK4 (Homo sapiens, UniProt Q9HAZ1). Nature of the assay: Selectivity interaction (KinomeScan (DiscoverX)) EUB0001550a CLK4. Particulars: at 1 µM.
In assay [8] the target is T2, Mitogen-activated protein kinase 13 (Homo sapiens) (UniProt O15264).
T2 sequence (whole entry): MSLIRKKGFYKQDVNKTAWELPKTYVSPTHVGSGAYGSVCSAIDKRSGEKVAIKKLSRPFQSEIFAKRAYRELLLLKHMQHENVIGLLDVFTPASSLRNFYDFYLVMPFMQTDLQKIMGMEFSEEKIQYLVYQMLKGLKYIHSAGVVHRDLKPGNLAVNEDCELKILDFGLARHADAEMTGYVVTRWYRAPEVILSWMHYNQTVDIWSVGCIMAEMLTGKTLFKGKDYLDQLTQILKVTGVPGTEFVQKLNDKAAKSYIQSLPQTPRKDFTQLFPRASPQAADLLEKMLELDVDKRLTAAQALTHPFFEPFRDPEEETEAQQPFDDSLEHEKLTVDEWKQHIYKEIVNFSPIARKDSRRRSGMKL
Nature of the assay: Selectivity interaction (KinomeScan (DiscoverX)) EUB0000695a MAPK13. Particulars: at 100 nM.

The target in assay [9] is Receptor tyrosine-protein kinase erbB-2 (Homo sapiens, UniProt P04626). Nature of the assay: Selectivity interaction (KinomeScan (DiscoverX)) EUB0000666a ERBB2. Particulars: at 10 µM.
Assay [10] addresses Dual specificity testis-specific protein kinase 1 (Homo sapiens) (UniProt Q15569). The experiment in a line: Selectivity interaction (LanthaScreen Eu Kinase Binding Assay) EUB0001632a TESK1. Particulars: at 10 µM. Background: In TR-FRET formats the signal depends on donor and acceptor labels being close together.
The target of assay [11] is BDNF/NT-3 growth factors receptor (Homo sapiens) (UniProt Q16620). The experiment in a line: Selectivity interaction (SelectScreen profiling (Invitrogen)) EUB0000607a NTRK2. Particulars: at 2 µM.
Chain of BDNF/NT-3 growth factors receptor (Homo sapiens) (Q16620 32-822 limits assumed): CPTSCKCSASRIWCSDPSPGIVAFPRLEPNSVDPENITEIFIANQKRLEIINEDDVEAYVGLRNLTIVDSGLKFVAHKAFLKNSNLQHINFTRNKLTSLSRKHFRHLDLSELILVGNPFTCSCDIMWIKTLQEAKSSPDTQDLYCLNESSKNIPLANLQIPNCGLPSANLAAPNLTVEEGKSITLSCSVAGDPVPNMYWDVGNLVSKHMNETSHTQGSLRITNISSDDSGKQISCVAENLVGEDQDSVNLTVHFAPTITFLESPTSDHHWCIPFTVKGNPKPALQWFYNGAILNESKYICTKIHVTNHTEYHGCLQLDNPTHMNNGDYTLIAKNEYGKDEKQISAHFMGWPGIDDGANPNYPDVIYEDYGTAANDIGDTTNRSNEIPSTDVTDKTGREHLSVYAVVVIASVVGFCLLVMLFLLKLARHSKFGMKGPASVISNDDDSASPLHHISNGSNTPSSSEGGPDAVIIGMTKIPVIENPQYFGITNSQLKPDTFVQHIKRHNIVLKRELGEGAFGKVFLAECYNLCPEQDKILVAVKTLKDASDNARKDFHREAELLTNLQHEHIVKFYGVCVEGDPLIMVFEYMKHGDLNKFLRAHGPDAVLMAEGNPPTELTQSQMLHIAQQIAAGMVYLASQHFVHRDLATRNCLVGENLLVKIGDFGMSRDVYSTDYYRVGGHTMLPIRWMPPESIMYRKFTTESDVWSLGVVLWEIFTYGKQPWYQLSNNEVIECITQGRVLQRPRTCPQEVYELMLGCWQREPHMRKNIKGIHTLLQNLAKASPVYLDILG
For assay [12], the target named is Protein kinase C alpha type (Homo sapiens, UniProt P17252). Nature of the assay: Selectivity interaction (SelectScreen profiling (Invitrogen)) EUB0000607a PRKCA. Particulars: at 2 µM.
Assay [13] can be described thus: Selectivity interaction (ActivX KiNativ screen (kinase selectivity in THP-1 cell lysates)) EUB0000639a STLK6. Particulars: Selectivity number of off-targets 0; Selectivity number of targets 283; Source Knowledge https://pubmed.ncbi.nlm.nih.gov/28498658/; at 0.2 µM.
Assay [14] concerns the target T3, Mitogen-activated protein kinase 12 (Homo sapiens) (UniProt P53778).
T3 sequence (whole entry): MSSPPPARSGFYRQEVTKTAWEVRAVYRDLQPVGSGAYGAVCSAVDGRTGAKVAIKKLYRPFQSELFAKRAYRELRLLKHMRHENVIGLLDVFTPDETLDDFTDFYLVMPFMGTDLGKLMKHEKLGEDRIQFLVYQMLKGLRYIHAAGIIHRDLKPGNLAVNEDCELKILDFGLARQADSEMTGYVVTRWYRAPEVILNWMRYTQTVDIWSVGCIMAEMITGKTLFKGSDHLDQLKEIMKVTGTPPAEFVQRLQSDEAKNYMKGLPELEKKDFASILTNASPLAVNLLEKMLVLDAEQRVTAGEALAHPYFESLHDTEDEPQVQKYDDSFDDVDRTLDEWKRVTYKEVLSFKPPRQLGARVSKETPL
The experiment in a line: Selectivity interaction (KinomeScan (DiscoverX)) EUB0000229b MAPK12. Particulars: at 10 µM.

With `CCn1c(-c2nc3cc(C(=O)N4CCCC(N)C4)ccc3n2C)cc2ccccc21` (stereo unspecified), on D(1A) dopamine receptor, the pXC50 came out at 4.6 M. For `C=CC(=O)Nc1cccc(C(=O)Nc2ccc(Nc3cc(-c4[nH]c(SC)nc4C)ccn3)cc2)c1`, the % of control was 98% in assay [1] (at 1 µM) and 78% in assay [1] (at 5 µM). In the case of `Cc1cc([C@@H](C)Nc2ccccc2C(=O)O)c2nc(N3CCOCC3)cc(=O)n2c1` [AZD-6482], the % of control in assay [2] was 100%. As for `CN(C)C/C=C/C(=O)Nc1ccc(C(=O)N2CCCC(Nc3ncc(Cl)c(-c4c[nH]c5ccccc45)n3)C2)cc1` (stereo unspecified), the % of control in [3] came to 96%. Consider `Nc1cnc(N2CCc3cc(S(=O)(=O)Nc4c(F)cc(Cl)cc4F)cc(N4CCCC4=O)c32)nc1` [TP-020n], for which the results for the % of control in assay [4] and in assay [5] were 78% and 93%, respectively. For `CC[C@@H](Nc1c(C#N)c(-c2ccc(-c3cccc(C)c3F)cc2)nc2cnccc12)C(=O)O` [BAY-091], the % of inhibition in [6] was determined as 56.8%. In the case of `CN(C)CC#Cc1ccc2[nH]c3c(c2c1)-c1nc(N)ncc1CCC3`, the % of control in [7] amounted to 34%.

In assay [8], `Cc1cc(F)c(C(=O)Nc2cccc(-c3nncn3C(C)C)n2)cc1-n1cnc(C2CC2)c1` came in with a % of control of 100%. `O=C(NOC[C@H](O)CO)c1ccc(F)c(F)c1Nc1ccc(I)cc1F` displayed a % of control in [9] of 100%.

Consider `Cn1cc(-n2cnc3c(NCc4nc5cc(Cl)c(Cl)cc5[nH]4)nc(N4CCOCC4)nc32)cn1`, for which the % of inhibition in assay [10] is -5.55%. Take `CNC(=O)Nc1ccc(-c2nc(N3CC4CCC(C3)O4)c3cnn(C4CCC5(CC4)OCCO5)c3n2)cc1`: the figures for the % of inhibition in assay [11] and in assay [12] were 1% and 10%, respectively. For `CC[C@@H]1[C@H](F)C(=O)N[C@@H]1COc1nccc2cc(C(N)=O)c(OC)cc12` [ZIMLOVISERTIB], the “% of inhibition” value in [13] stood at 7.4%. `COc1cc(N(C)c2ccnc3ccc(C(F)(F)F)cc23)cc(OC)c1OC`: the % binding in assay [14] was determined as 100%.
